These results are taken from patent publication US10412961B2, “Substituted 2,3-dihydrobenzofuran compounds and their use as synergists” (Endura SPA, priority 2015, dated 2019).

Molecules are shown by their SMILES.

In data set [1] the target is T1, E4, a resistance-associated esterase (Myzus persicae, UniProt P35501).
T1 sequence (P35501 24-552): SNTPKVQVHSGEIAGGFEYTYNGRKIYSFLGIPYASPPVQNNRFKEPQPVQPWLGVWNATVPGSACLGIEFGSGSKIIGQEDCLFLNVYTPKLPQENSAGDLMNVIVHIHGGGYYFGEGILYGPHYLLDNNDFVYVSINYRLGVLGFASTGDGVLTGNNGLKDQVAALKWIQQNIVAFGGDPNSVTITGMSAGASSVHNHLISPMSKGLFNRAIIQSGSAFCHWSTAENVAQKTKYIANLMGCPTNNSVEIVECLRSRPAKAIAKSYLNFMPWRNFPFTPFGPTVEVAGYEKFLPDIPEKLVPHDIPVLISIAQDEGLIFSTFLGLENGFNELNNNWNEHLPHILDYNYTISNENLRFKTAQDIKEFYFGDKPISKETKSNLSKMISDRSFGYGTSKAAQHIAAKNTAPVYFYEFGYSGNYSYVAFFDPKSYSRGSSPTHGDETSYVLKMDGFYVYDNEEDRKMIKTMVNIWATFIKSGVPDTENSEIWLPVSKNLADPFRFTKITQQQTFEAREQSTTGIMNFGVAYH
As to conditions: compared with PBO; cited from earlier work.

The target of data set [2] is T2, FE4 Myzus persicae esterases (Myzus persicae, UniProt P35502).
T2 construct: would be utilised for the purified esterases from aphids; from tissue; host or cells: aphids (Myzus persicae), purified esterase
T2 sequence (P35502 24-564): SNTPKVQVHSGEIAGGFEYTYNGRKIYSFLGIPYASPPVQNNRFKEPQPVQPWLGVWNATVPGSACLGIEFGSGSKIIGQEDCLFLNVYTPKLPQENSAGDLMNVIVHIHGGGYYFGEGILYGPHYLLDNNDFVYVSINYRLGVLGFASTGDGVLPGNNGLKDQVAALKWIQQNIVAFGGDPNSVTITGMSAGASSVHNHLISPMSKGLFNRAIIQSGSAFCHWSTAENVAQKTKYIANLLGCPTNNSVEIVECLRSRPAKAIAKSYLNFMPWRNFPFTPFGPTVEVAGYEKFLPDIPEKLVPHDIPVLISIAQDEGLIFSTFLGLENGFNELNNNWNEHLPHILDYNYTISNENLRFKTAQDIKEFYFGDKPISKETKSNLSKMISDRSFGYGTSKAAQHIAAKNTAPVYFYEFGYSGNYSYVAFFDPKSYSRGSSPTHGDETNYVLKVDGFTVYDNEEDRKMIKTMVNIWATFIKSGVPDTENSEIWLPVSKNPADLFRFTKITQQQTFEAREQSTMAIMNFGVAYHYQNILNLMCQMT
Kind of data set: Inhibition of esterase FE4, 4-nitrophenyl acetate model substrate assay. The data set is classed as biochemical. As to conditions: purified FE4, 2.5 μL of 10 mM compound in acetone, 10 min incubation, substrate 4-nitrophenyl acetate 0.8 mM, read at 405 nm. As for the experimental part: Inhibition of Esterasenzymes by Synergists in Myzus persicae
It was envisaged, therefore, that the ‘esterase intereference assay’ (Khot et al., 2008) would be utilised for the purified esterases from aphids. Various esterase substrates were assessed to find one suitable of monitoring inhibition in an insect homogenate. The Myzus persicae resistance associated esterase, FE4, was used.
Initially the esterase interference assay was carried out, as being the ‘absolute’ protocol for characterizing interactions between the compounds of Example 1-9 and FE4. However, since this is a protracted method, a selection of products already reported in the literature were used to compare the interference assay and the use of a model substrate.
From the literature (Philippou et al., 2013) it is known that 1-naphthyl acetate is not suitable for this assay. Instead, 4-nitrophenyl acetate was used. A 10 mM pNA stock was prepared in acetone and added to 0.02 M phosphate buffer pH 7.0 (final concentration 2 mM). The comparison was made with 6 PBO analogues of variable efficacy.
For the assay 10 μL of purified FE4 was diluted to a total volume of 50 μL by the addition of 0.02 M phosphate buffer, pH 7.0 in individual wells of a microplate (maxisorb, NUNC). To each well, 2.5 μL of 10 mM of the compound of Example 1 and of Example 2 in acetone was added and incubated for 10 mins, with acetone only used as a control. Following incubation, 100 μL of 0.02 phosphate buffer, pH 7.0 and 100 μL of 2 mM 4-nitrophenyl acetate was added (final volume in well 250 μL, final substrate concentration 0.8 mM). Enzyme activity was read at 405 nm in a Spectramax Tmax for 5 min, with readings taken every 5 secs. The rate (mOD min^−1) was calculated by the integrated software, Softmax Pro v.5.4.

In the next data set the test system is Bemisia tabaci CYPCM1. As to conditions: recombinant enzyme 50 μL + 3 μL of 10 mM compound stock in acetone, 10 min incubation at room temperature, substrate 7-ethoxycoumarin, NADPH.

Procedure for Bemisia tabaci CYPCM1: Ability of the compounds of the invention to inhibit oxidative enzymes (P450), a major mechanism conferring resistance to xenobiotics, was measured using recombinant enzymes corresponding to CYPCM1 from Bemisia tabaci.
Substrate used was 7-ethoxycoumarin for inhibition assays as described by Ulrich and Weber (1972) and adapted to microplate format as described by De Sousa et al. (1995).
Diluted recombinant enzyme (50 μL) was mixed with 3 μL of the above mentioned compound stock solutions, with acetone only used as a control. After 10 min incubation at room temperature, 80 μL of 0.125 mM 7- ethoxycoumarin was added, followed by 10 μL 9.6 mM NADPH (nicotinamide adenine dinucleotide phosphate) in 0.1 M sodium phosphate, pH 7.8, and O-deethylation activity monitored as above. A PBO solution (10 mM) was prepared in the same way as a comparison.

On to `CC#CCOc1ccc2c(c1)OCC2` [EN16-18, 6-(but-2-ynyloxy)-2,3-dihydrobenzofuran], for which, in data set [1], the binding affinity entry is reported as “comparable with PBO”.

As a reminder, the remaining activity is the share of the control activity or signal that is left under treatment. `C#CCOCc1cc(CCCCCC)cc2c1OCC2` [Example 1, 5-n-hexyl-7-((prop-2-ynyloxy)methyl)-2,3-dihydrobenzofuran]: in data set [2], the remaining activity at 10000 µM (stock) was found to be 26.2%.

For the compound `CC#CCOCc1cc(CCCCCC)cc2c1OCC2` [Example 2, 5-n-hexyl-7-((but-2-ynyloxy)methyl)-2,3-dihydrobenzofuran], the remaining activity at 10000 µM (stock) in data set [2] came to 35.4%. In addition, the “% activity remaining” value with Bemisia tabaci CYPCM1 is given as 27.49%.

As for `CC#CCOCc1cc(CCCC)cc2c1OCC2` [Example 3, 5-n-butyl-7-((but-2-ynyloxy)methyl)-2,3-dihydrobenzofuran], in data set [2], the remaining activity at 10000 µM (stock) came out at 19.9%. Besides, the “% activity remaining” value in the data set with Bemisia tabaci CYPCM1 turned out to be 3.16%.

As to `CC#CCOc1cc(CCCCCC)cc2c1OCC2` [Example 4, 5-n-hexyl-7-(but-2-ynyloxy)-2,3-dihydrobenzofuran], in data set [2], the remaining activity at 10000 µM (stock) was found to be 24%. The “% activity remaining” value with Bemisia tabaci CYPCM1 is reported as 39.22%.

On to `C#CCOCc1cc(CCCC)cc2c1OCC2` [Example 5, 5-n-butyl-7-((prop-2-ynyloxy)methyl)-2,3-dihydrobenzofuran], for which the remaining activity at 10000 µM (stock) in data set [2] worked out at 18.4%. In addition, in the data set with Bemisia tabaci CYPCM1, the “% activity remaining” value is on record as 87.62%.

Turning to `C#CCOc1cc(CCCCCC)cc2c1OCC2` [Example 6, 5-n-hexyl-7-(prop-2-ynyloxy)-2,3-dihydrobenzofuran], the remaining activity at 10000 µM (stock) in data set [2] worked out at 29.8%. In addition, the “% activity remaining” value in the data set with Bemisia tabaci CYPCM1 is on record as 61.16%.

Take `CC#CCOCc1cc(CCC)cc2c1OCC2` [Example 7, 5-n-propyl-7-((but-2-ynyloxy)methyl)-2,3-dihydrobenzofuran]: in data set [2], the remaining activity at 10000 µM (stock) is 19.9%. The “% activity remaining” value with Bemisia tabaci CYPCM1 worked out at 17.92%.

Take `C#CCOCc1cc(CCC)cc2c1OCC2` [Example 8, 5-n-propyl-7-((prop-2-ynyloxy)methyl)-2,3-dihydrobenzofuran]: in data set [2], the remaining activity at 10000 µM (stock) was 23.9%. In addition, the “% activity remaining” value with Bemisia tabaci CYPCM1 is reported as 86.22%.
